Results from patent US7550468B2, “Theophylline and 3-isobutyl-1 methylxanthine based N-7 substituted derivatives displaying inhibitory activities on PDE-5 phospodiesterase” (priority 2000, dated 2009).

Key:
[1] = biological target: T1, PDE5 (human platelet) (Homo sapiens, UniProt O76074); test: PDE5 (human platelet) inhibition; type: biochemical
T1 construct: PDE5 (human); from tissue; host or cells: human platelets

[2] = tested on: Rabbit Corpus Cavernosal; test: Relaxation of phenylephrine precontracted rabbit corpus cavernosal strips; type: cell-based; conditions: for IC50 / EC50: Oryctolagus cuniculus
Excerpt: Recently some reports have stated that theophyllline has an adenosine […] antagonist and phosphodiesterase (PDE) inhibitor function. […] FIG. 4A illustrates the experimental results and the effects of compound 14 on phenylphrine precontracted rabbit corpus cavemosal in the absence and presence of L-NAME, methylene blue, ODQ. FIG. 4B illustrates the experimental results and the effects of compound 14 on phenylphrine precontracted rabbit corpus cavernosal in absence and presence of potassium channel blockers.

[3] = tested on: intracavernous pressure; test: Intracavernous pressure and tumescence response in rabbits; type: in vivo; conditions: 2 mg/kg in rabbits

| Molecule | IC50 [1] [nM] | IC50 [2] [nM] | Duration of tumescence response [3] [min] | Peak increased intracavernous pressure ΔICP (mmHg) [3] [mmHg] | other results |
| --- | --- | --- | --- | --- | --- |
| 7-{2-[4-(nitrobenzene)piperazinyl]ethyl}-1,3-dimethylxanthine [Compound 9] |  |  | 16 ± 1.2 | 25 ± 1.3 |  |
| COc1ccccc1N1CCN(CCn2cnc3c2c(=O)n(C)c(=O)n3C)CC1 [Compound 10, 7-{2-[4-(o-Methoxyphenyl)piperazinyl]ethyl}-1,3-dimethylxanthine] |  |  | 13 ± 2.1 | 12 ± 1.6 |  |
| CC(C)Cn1c(=O)n(C)c(=O)c2c1ncn2CCN1CCN(c2ncccn2)CC1 [Compound 12, 7-{2-[4-(2-Pyrimidyl)piperazinyl]ethyl}-3-isobutyl-1-methylxanthine] |  |  | 15 ± 1.3 | 23 ± 1.5 |  |
| CC(C)Cn1c(=O)n(C)c(=O)c2c1ncn2CCN1CCN(c2ccccc2Cl)CC1 [Compound 14, 7-{2-[4-(2-chlorophenyl)piperazinyl]ethyl}-3-isobutyl-1-methylxanthine] | 3.8 ± 0.2 | 14.5 |  |  | EC50 ([2]; Control (no drug pretreatment)): 64.6 nM; EC50 ([2]; pretreatment 4-AP 100 μM): 1480 nM; EC50 ([2]; pretreatment Glibenclamide 1 μM): 269 nM; EC50 ([2]; pretreatment L-NAME 100 μM): 309 nM; EC50 ([2]; pretreatment Methylene blue 10 μM): 309 nM; EC50 ([2]; pretreatment ODQ 1 μM): 162 nM; EC50 ([2]; pretreatment TEA 10 mM): 9180 nM |
| CC(C)Cn1c(=O)n(C)c(=O)c2c1ncn2CCN1CCN(C(=O)c2ccco2)CC1 [Compound 18, 7-{2-[4-(2-furoyl)piperazinyl]ethyl}-3-isobutyl-1-methylxanthine] |  |  | 18 ± 1.3 | 26 ± 1.4 |  |
| CCOc1ccc(S(=O)(=O)N2CCN(C)CC2)cc1CNCCn1cnc2c1c(=O)n(C)c(=O)n2C [Compound 34, 7-[2-({5-[(4-methylpiperazin-1-yl)sulfonyl]-2-ethoxybenzyl}amino)ethyl] dimethylxanthine] | 0.4 ± 0.2 |  |  |  | pEC50 (−log EC50) for relaxation [2]: 8.13 ± 0.05 |

Further lines, with some results ahead:

| IC50 [1] [nM] | IC50 [2] [nM] | Molecule | Duration of tumescence response [3] [min] | Peak increased intracavernous pressure ΔICP (mmHg) [3] [mmHg] | other results |
| --- | --- | --- | --- | --- | --- |
| 0.4 ± 0.1 |  | 7-[12-({5-[(4-methylpiperazin-1-yl)sulfonyl]-2-propoxybenzyl}amino)ethyl] dimethylxanthine [Compound 35] |  |  | pEC50 (−log EC50) for relaxation [2]: 8.25 ± 0.06 |
| 0.6 ± 0.2 |  | 7-{2-[(2-propoxybenzyl)aniino]ethyl}-3-isobutyl-1-methylxanthine [Compound 38] |  |  | pEC50 (−log EC50) for relaxation [2]: 8.16 ± 0.07 |
| 3.9 ± 0.1 | 69.2 | Cn1c(=O)c2c(ncn2CCN2CCN(c3ccccc3Cl)CC2)n(C)c1=O [Compound 4, 7-{2-[4-(2-chlorophenyl)piperazinyl]ethyl}-1,3-dimethylxanthine] | 14 ± 1.1 | 14 ± 2.1 |  |
| 4.2 ± 0.2 | 74.1 | Cn1c(=O)c2c(ncn2CCN2CCN(Cc3ccccc3)CC2)n(C)c1=O [Compound 7, 7-{2-[4-benzylpiperazinyl]ethyl}-1,3-dimethylxanthine] |  |  |  |
| 6.2 ± 0.2 | 22.9 | CC(C)Cn1c(=O)n(C)c(=O)c2c1ncn2CCN1CCN(Cc2ccccc2)CC1 [Compound 17, 7-{2-[4-benzylpiperazinyl]ethyl}-3-isobutyl-1-methylxanthine] |  |  |  |
| 4.8 ± 0.2 | 38 | Cc1ccccc1S(=O)(=O)N1CCN(CCn2cnc3c2c(=O)n(C)c(=O)n3CC(C)C)CC1 [Compound 26, 7-(2-{4-[(2-methylphenyl)sulfonyl]piperazinyl}ethyl)-3-isobutyl-1-methylxanthine] |  |  |  |
| 0.8 ± 0.2 | 5.01 | CCCOc1ccc(C(N)=O)cc1CNCCn1cnc2c1c(=O)n(C)c(=O)n2CC(C)C [Compound 41, 4-propoxy-3-({[2-(3-isobutyl-1-methyl-2,6-dioxo-1,2,3,6-tetrahydro-7H-purin-7-yl)ethyl]amino}methyl)benzamide] |  |  |  |
| 5.2 ± 0.1 |  | CCCn1cnc2c1c(=O)n(C)c(=O)n2CC(C)C [Compound 46] |  |  | pEC50 (−log EC50) for relaxation [2]: 7.96 ± 0.03 |
